Measured values: patent US5034391A, “Piperazinylalkyl-3(2H)-pyridazinones and the use thereof as agents lowering blood pressure” (CL Pharma Aktiengesellschaft, priority 1988, dated 1991)
Where “and” joins values, the source holds several entries; their conditions need not be identical. Identical values can stand only once.

Target: T1, alpha1 adrenoceptors (Rattus norvegicus, UniProt P15823)
T1 construct: from tissue; host or cells: rat cardiac membranes
T1 sequence (P15823 1-515): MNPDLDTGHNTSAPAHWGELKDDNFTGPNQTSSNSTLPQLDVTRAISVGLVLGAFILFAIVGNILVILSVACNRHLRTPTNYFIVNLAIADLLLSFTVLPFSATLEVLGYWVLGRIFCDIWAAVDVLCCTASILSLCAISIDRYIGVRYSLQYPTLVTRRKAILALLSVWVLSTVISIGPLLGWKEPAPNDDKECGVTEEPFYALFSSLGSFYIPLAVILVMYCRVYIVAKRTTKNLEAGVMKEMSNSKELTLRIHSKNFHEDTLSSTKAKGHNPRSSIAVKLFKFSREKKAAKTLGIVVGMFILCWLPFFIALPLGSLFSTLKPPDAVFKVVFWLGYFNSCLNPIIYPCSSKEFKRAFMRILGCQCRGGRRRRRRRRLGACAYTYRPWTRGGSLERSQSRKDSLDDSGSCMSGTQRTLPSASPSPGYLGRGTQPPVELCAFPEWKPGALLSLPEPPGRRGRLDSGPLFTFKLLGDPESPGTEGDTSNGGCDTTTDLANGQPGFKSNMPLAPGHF
Test: Affinity for alpha1 adrenoceptors: displacement of tritiated prazosin on rat cardiac membranes
Assay type: binding
Conditions: Ki from IC50 by Cheng and Prusoff, read-out: Inhibition constants at alpha-1-adrenoceptor (Ki)
Protocol: The affinity of compounds of the general formula I for alpha1 adrenoceptors was established using the method described by R. S. Williams, D. F. Dukes and […] in J. Cardiovasc. Pharmacol. 3, 522-531 (1981). In this method the competitive displacement of tritiated prazosin (2-(4-(2-furoyl)-1-piperazinyl)-4-amino-6,7-dimethoxy-quinazoline) on rat-cardiac membranes by the test substances is measured, and the IC50 (50% inhibition concentration) is determined as that concentration which brings about a 50% inhibition of the specific binding of tritiated prazosin to the alpha1 adrenoceptors in rat cardiac membranes.
The concentration-independent inhibitor constants K1 -alpha1 were determined from the IC50 values as stated by Y. Cheng and H. W.Prusoff in Biochem. Pharmacol. 22, 3099-3108 (1973).

Ki	Compound
89.4 nM	2-Methyl-4-((2-(4-(2-fluorophenyl)piperazinyl-1)ethyl) amino)-3(2H)-pyridazinone
23.3 nM	CCOc1cc(C)ccc1N1CCN(CCCNc2cnn(C)c(=O)c2)CC1 [1-Methyl-5-((3-(4-(2-ethoxy-4-methylphenyl)piperazinyl-1)propyl)amino)-3(2H)-pyridazinone]
437 nM	COc1ccccc1N1CCN(CCNc2ccnn(CCN(C)C)c2=O)CC1 [2-(2-Dimethylaminoethyl)-4-((2-(4-(2-methoxyphenyl)piperazinyl-1)ethyl)amino)-3(2H)-pyridazinone]
229 nM	COc1ccccc1N1CCN(CCNc2cnn(CCN(C)C)c(=O)c2)CC1 [2-(2-Dimethylaminoethyl)-5-((2-(4-(2-methoxyphenyl)piperazinyl-1)ethyl)amino)-3(2H)-pyridazinone]
15.8 nM	COc1ccccc1N1CCN(CCNc2c(Cl)cnn(CCN(C)C)c2=O)CC1 [2-(2-Dimethylaminoethyl)-5-chloro-4-((2-(4-(2-methoxyphenyl)piperazinyl-1)ethyl)amino)-3(2H)-pyridazinone]
13.6 nM	CCOc1ccccc1N1CCN(CCNc2ccnn(C)c2=O)CC1 [2-Methyl-4-((2-(4-(2-ethoxyphenyl)piperazinyl-1)ethyl)amino)-3(2H)-pyridazinone]
21.4 nM	Cn1nccc(NCCN2CCN(c3ccccc3F)CC2)c1=O [2-Methyl-4-((2-(4-(2-fluorophenyl)piperazinyl-1)ethyl)amino) -3(2H)-pyridazinone]
15.7 nM	COc1ccccc1N1CCN(CCNc2ccnn(C)c2=O)CC1 [2-Methyl-4-((2-(4-(2-methoxyphenyl)piperazinyl-1)ethyl)amino)-3(2H)-pyridazinone]
13.6 nM	CCOc1cc(C)ccc1N1CCN(CCCNc2ccnn(C)c2=O)CC1 [2-Methyl-4-((3-(4-(2-ethoxy-4-methylphenyl)piperazinyl-1)propyl)amino)-3(2H)-pyridazinone]
30.2 nM	Cn1nccc(NCCCN2CCN(c3ccccc3F)CC2)c1=O [2-Methyl-4-((3-(4-(2-fluorophenyl)piperazinyl-1)propyl)amino)-3(2H)-pyridazinone]
20.9 nM	Cc1ccc(N2CCN(CCCNc3ccnn(C)c3=O)CC2)c(O)c1 [2-Methyl-4-((3-(4-(2-hydroxy-4-methylphenyl)piperazinyl-1)propyl)amino)-3(2H)-pyridazinone]
24.7 nM and 40.5 nM	COc1ccccc1N1CCN(CCCNc2ccnn(C)c2=O)CC1 [2-Methyl-4-((3-(4-(2-methoxyphenyl)piperazinyl-1)propyl)amino-3(2H)-pyridazinone]
49.3 nM	Cc1ccccc1N1CCN(CCCNc2cnn(C)c(=O)c2)CC1 [2-Methyl-4-((3-(4-(2-methylphenyl)piperazinyl-1)propyl)amino)-3(2H)-pyridazinone]
11.8 nM	COc1ccccc1N1CCN(CCCCNc2ccnn(C)c2=O)CC1 [2-Methyl-4-((4-(4-(2-methoxyphenyl)piperazinyl-1)butyl)amino)-3(2H)-pyridazinone]
2 nM	Cn1ncc(NCCN2CCN(c3ccccc3OCc3ccccc3)CC2)c(Cl)c1=O [2-Methyl-4-chloro-5-((2-(4-(2-benzyloxyphenyl)piperazinyl-1)ethyl)amino)-3(2H)-pyridazinone]
15.4 nM	Cn1ncc(NCCN2CCN(c3ccccc3O)CC2)c(Cl)c1=O [2-Methyl-4-chloro-5-((2-(4-(2-hydroxyphenyl)piperazinyl-1)ethyl)amino)-3(2H)-pyridazinone]
6.27 nM	Cc1ccccc1N1CCN(CCNc2cnn(C)c(=O)c2Cl)CC1 [2-Methyl-4-chloro-5-((2-(4-(2-methylphenyl)piperazinyl-1)ethyl)amino)-3(2H)-pyridazinone]

Ki	Compound
3.78 nM	CCOc1cc(C)ccc1N1CCN(CCCNc2cnn(C)c(=O)c2Cl)CC1 [2-Methyl-4-chloro-5-((3-(4-(2-ethoxy-4-methylphenyl)piperazinyl-1)propyl)yamino)-3(2H)-pyridazinone]
32.8 nM	Cn1ncc(NCCCN2CCN(c3ccccc3F)CC2)c(Cl)c1=O [2-Methyl-4-chloro-5-((3-(4-(2-fluorophenyl)piperazinyl-1)propyl)amino)-3(2H)-pyridazinone]
4.33 nM	Cc1ccc(N2CCN(CCCNc3cnn(C)c(=O)c3Cl)CC2)c(O)c1 [2-Methyl-4-chloro-5-((3-(4-(2-hydroxy-4-methylphenyl)piperazinyl-1)propyl)amino)-3(2H)-pyridazinone]
31.4 nM	Cc1ccccc1N1CCN(CCCNc2cnn(C)c(=O)c2Cl)CC1 [2-Methyl-4-chloro-5-((3-(4-(2-methylphenyl)piperazinyl-1)propyl)amino)-3(2H)-pyridazinone]
20.8 nM	Cc1ccc(N2CCN(CCNc3cnn(C)c(=O)c3Cl)CC2)c(O)c1 [2-Methyl-4-chloro-5-((4-(2-hydroxy-4-methylphenyl)piperazinyl-1)ethyl)amino)-3(2H)-pyridazinone]
6.05 nM	COc1ccccc1N1CCN(CCCCNc2cnn(C)c(=O)c2Cl)CC1 [2-Methyl-4-chloro-5-((4-(4-(2-methoxyphenyl)-1-piperazinyl)butyl)amino)-3(2H)-pyridazinone]
37.1 nM	CCN(CCN1CCN(c2ccccc2OC)CC1)c1cnn(C)c(=O)c1Cl [2-Methyl-4-chloro-5-(ethyl-(2-(4-(2-methoxyphenyl)piperazinyl-1)ethyl)amino)-3(2H)-pyridazinone]
3.55 nM	COc1ccccc1N1CCN(CCCN(C)c2cnn(C)c(=O)c2Cl)CC1 [2-Methyl-4-chloro-5-(methyl-(3-(4-(2-methoxyphenyl)piperazinyl-1)propyl)amino)-3(2H)-pyridazinone]
103 nM	CCOc1ccccc1N1CCN(CCNc2cnn(C)c(=O)c2)CC1 [2-Methyl-5-((2-(4-(2-ethoxyphenyl)piperazinyl-1)ethyl)amino)-3(2H)-pyridazinone]
65.8 nM	Cn1ncc(NCCN2CCN(c3ccccc3O)CC2)cc1=O [2-Methyl-5-((2-(4-(2-hydroxyphenyl)piperazinyl-1)ethyl)amino)-3(2H)-pyridazinone]
5.38 nM	COc1ccccc1N1CCN(CCCCNc2cnn(C)c(=O)c2)CC1 [2-Methyl-5-((4-(4-(2-methoxyphenyl)piperazinyl-1)butyl)amino)-3(2H)-pyridazinone]
2.54 nM	Cn1ncc(Cl)c(NCCN2CCN(c3ccccc3OCc3ccccc3)CC2)c1=O [2-Methyl-5-chloro-4-((2-(4-(2-benzyloxyphenyl)piperazinyl-1)ethyl)amino)-3(2H)-pyridazinone]
1.21 nM	Cc1ccccc1N1CCN(CCNc2c(Cl)cnn(C)c2=O)CC1 [2-Methyl-5-chloro-4-((2-(4-(2-methylphenyl)piperazinyl-1)ethyl)amino)-3(2H)-pyridazinone]
4.99 nM	CCOc1cc(C)ccc1N1CCN(CCCNc2c(Cl)cnn(C)c2=O)CC1 [2-Methyl-5-chloro-4-((3-(4-(2-ethoxy-4-methylphenyl)piperazinyl-1)propyl)amino)-3(2H)-pyridazinone]
4.89 nM	Cn1ncc(Cl)c(NCCCN2CCN(c3ccccc3F)CC2)c1=O [2-Methyl-5-chloro-4-((3-(4-(2-fluorophenyl)piperazinyl-1)propyl)amino)-3(2H)-pyridazinone]
5.34 nM	Cc1ccc(N2CCN(CCCNc3c(Cl)cnn(C)c3=O)CC2)c(O)c1 [2-Methyl-5-chloro-4-((3-(4-(2-hydroxy-4-methylphenyl)piperazinyl-1)propyl)amino)-3(2H)-pyridazinone]
